Measured values from patent publication US4567162A, “Biologically active heptapeptides” (Farmitalia Carlo Erba, priority 1983, dated 1986).
Structures can show the parent of a compound that is named as a salt. Ends that are not written are not given here. Peptide text beside a SMILES is read from it.

How the values were obtained:
[1] = test system: protein synthesis of liver tissue; test: In vivo-in vitro test: protein synthesis rate of liver tissue (14C amino acid incorporation in microsomal cell juice); design: species or system male rats (Wistar); conditions: 4 weeks; for Δ % control rat group treated: versus treated (physiological sodium chloride s.c.) control group; for Δ % control rat group untreated: versus untreated control group; for Protein synthesis rates compared with the two control groups: male rats, daily s.c.
Experimental: De-protecting reactions are carried out according to methods known per se in polypeptide chemistry. Peptides wherein Y represents OR are prepared, for example, starting from the C-terminal amino acid esterified by the appropriate alcohol. Peptides wherein Y represents OH can be prepared, for example, by hydrolysis of peptides wherein Y represents OR. Peptides wherein Y represents NH2, NHR or NR2 can be prepared by ammonolysis of the corresponding esters or starting from a C-terminal amino acid amidated by an appropriate amine. Hydrazido or substituted hydrazido derivatives according to the invention are prepared by condensation of the N-protected peptide or amino acid with a suitably substituted hydrazine, such as benzylcarbazate, t-butylcarbazate, adamantylcarbazate, phenylhydrazine or adamantylhydrazine, or reacting the N-protected peptide or amino acid hydrazide with a suitable alkylating agent, such as an alkyl chloride, or with a suitable acylating agent such as benzylchloroformate, t-butylchloroformate, di-t-butyldicarbonate or adamantylfluoroformate. […] The compounds according to the invention show an interesting growth promoting activity in animals determined both by the in vivo-in vitro test system on protein synthesis of liver tissue (as described by K. Kammerer and A. Dey-Hazra (1980) Vet. Med. Nachr. Nr. 2, 99-112), and by the dose-dependent increase in weight gain and feed efficiency after subcutaneous or oral administration.
The growth tests were carried out for periods of 4 weeks, using groups of 6 male rats (Wistar, Hagemann, Extertal) divided in subgroups of three animals managed in Markolon cages, good shaving as litter.
Water and feed (Altromin 1321 Standard diet containing 19% crude protein): ad libitum.
The peptides of the present invention were administered in solution s.c. daily at doses of 10, 50 and 100 ng/kg, using as diluent normal saline (starting from a stock solution with 100 ng/ml).
Homogenise 3 g liver in 9 ml TKM buffer-saccharose solution, cooled on ice, in a Potter homogeniser at 600 r.p.m. for 2 min.; centrifuge at 4° C. in an ultracentrifuge with 10,000 g for 20 min., decant the supernatant=microsomal cell juice.
After calculation of protein content in the microsomal cell juice by means of the biuret method, the protein concentration was adjusted with TKM buffer to 1 mg/ml. To that, a further dilution with bidistilled water to 0.25 mg protein per ml of the microsomal cell juice followed.
Subsequently portions of 0.15 l ml reaction medium and 0.05 ml (50 mcg) of pyruvate kinase solution, as well as 0.1 ml of ^14 C amino acid mixture (=1 μCi) were added. The volume of the incubation mixture was then 1 ml each.
After a 35 minute incubation at 37° C. in a water bath, protein precipitation was performed by adding 2 ml of trichloracetic acid (10%). The sediment was washed by several additions of trichloroacetic acid and subsequent centrifugation (3600 g/5 min) until the supernatant was free from radioactivity.
The residue was dissolved in 1.0 ml Lumasolve and left overnight at 37° C., until it was clear.
Measuring the preparation was done in a PRIAS liquid scintillation counter PL (1.0 ml+5 ml scintillation liquid).
A detailed method is described in the above cited Kammerer article.

[2] = Growth test in pigs (body weight, feed consumption, feed efficiency); type: in vivo, castrated male pigs (Hybrids)
Experimental: The growth test was carried out for a period of 3 weeks, using groups of 7 castrated male pigs (Hybrids) divided in subgroups and managed in cages with flat decks. The pigs were fed during the whole experimental period with grower feed (Hoveler, normal type without feed additives), 1 kg per day. Water was given ad libitum. The weights were weekly recorded.

[3] = 50 ng/kg daily injection, 3 weeks
[4] = 50 ng/kg, 3 weeks, versus untreated group 1

Row | Molecule | Δ % control rat group treated ([1]; 10 ng/kg daily s.c.) | Δ % control rat group untreated ([1]; 10 ng/kg daily s.c.) | Δ % control rat group treated ([1]; 50 ng/kg daily s.c.) | Δ % control rat group untreated ([1]; 50 ng/kg daily s.c.) | Δ % control rat group treated ([1]; 100 ng/kg daily s.c.) | Δ % control rat group untreated ([1]; 100 ng/kg daily s.c.) | Protein synthesis rates compared with the two control groups [1] | Weight after 1 week ([2]; 50 ng/kg daily injection) | Weight after 2 weeks ([2]; 50 ng/kg daily injection) | Weight after 3 weeks ([2]; 50 ng/kg daily injection) | Weight gain [2, 3] | Weight gain in % [2, 3] | Initial weight ([2]; 50 ng/kg daily injection, baseline) | Feed efficiency (kg feed/kg weight gain) ([2]; 50 ng/kg, 3 weeks) | Consumption (feed) ([2]; 50 ng/kg, 3 weeks, feed 1 kg per day) | Feed efficiency Δ % to control group [2, 4] | Weight gain Δ % to control group [2, 4] | Weight gain (in words) ([2]; daily injection)
1 | COC(=O)[C@H](CCSC)NC(=O)[C@H](Cc1c[nH]c2ccccc12)NC(=O)CNC(=O)[C@H](CC(C)C)NC(=O)[C@@H]1CCCN1C(=O)[C@@H]1CCCN1C(=O)[C@@H](N)C(C)C [Ex. 2 (TK7D), HCl.H-Val-Pro-Pro-Leu-Gly-Trp-Met-OMe] (H-VPPLGWM-OMe) | +29.4% | +11.9% | +38.2% | +19.4% | +63.2% | +41.0% | significantly different from the two control groups | – | – | – | – | – | – | – | – | – | – | –
2 | VPPLGWM [Ex. 1 (TK7), H-Val-Pro-Pro-Leu-Gly-Trp-Met-OH.HCl] | +36.1% | +17.7% | +46.0% | +26.2% | +56.5% | +35.3% | significantly different from the two control groups | 15.2 kg | 17.8 kg | 20.7 kg | 9.0 kg | 76.9% | 11.7 kg | 2.33 kg feed/kg weight gain | 21 kg | -24.6% | +32.4% | clear increase in weight gain
